Laboratory results published in US4946842A, “Novel guanidino pyridazinones as cardiac stimulants” (Smith Kline & French Laboratories Limited, priority 1985, dated 1990).

Assays:
PDE (Peak I) = experiment: Substrate kinetics of PDE (Peak I); assay type: biochemical, cat; settings: for Relative Vmax: PDE (Peak I), eluted at 0.15 M Na acetate
PDE (Peak II) = settings: in words
Experimental: (§1) The enzyme was assayed by incubation at 37° for 4-30 min in 50 mM Tris, 5 mM MgCl2, pH 7.5 with [3-H] cyclic nucleotide (4×10^5 disintegrations min^-1) and [14-C] nucleotide 5' monophosphate (3×10^3 disintegrations min^-1). The assay was stopped by boiling, and the [3-H] […] The reaction mixture was diluted with 0.5 ml 100 mM HEPES (N-2-Hydroxyethylpiperazine-N'-2-ethanesulfonic acid), 100 mM NaCl, pH 8.5, and applied to the column. […] The recovery of product as judged by [14-C] recovery was approximately 80%. All assays were linear with time of incubation and concentration of enzyme over the range used in these experiments.

ventricular strips = experiment: Cardiac stimulant activity in vitro: force of contraction of electrically stimulated ventricular strips; assay type: cell-based; settings: Cavia porcellus, read-out: EC50 (50% increase in the force of contraction of the ventricular strips); guinea pig ventricular strips, 37° C., 1.0 Hz, cumulative concentration response
Experimental: The compounds of formula (I) and their pharmaceutically acceptable salts are tested for cardiac stimulant activity following a procedure based on that of S. C. Verma and J. H. McNeill (J.Pharm & Exp. Therapeutics, 200, 352-362 (1977)). Guinea pigs (500-700 g) of either sex are sacrificed and the hearts are quickly removed and transferred to a dissecting dish containing oxygenated bathing fluid. While in the bathing medium, the right ventricle is cut into two strips. The strips are each suspended in a 50 ml bath containing Krebs Henseleit solution at 37° C., and the bath is bubbled with 95% oxygen and 5% carbon dioxide. The ventricular strips are electrically stimulated at a frequency of 1.0 Hz, at double the threshold voltage. A resting tension of 1.0 g is applied to the strips and the tension is kept constant by readjustment during an equilibration period of 60 minutes. The bathing fluid is frequently changed during this period. When a steady base line is obtained, a compound under test is added to the bathing fluid and a cumulative concentration response curve is plotted. The compounds for use in the present invention which were tested gave a 50% increase in the force of contraction of the ventricular strips at concentrations in the bathing fluid of less than 10^-4 molar, thus showing that they have activity as positive inotropic agents.

[1] = test system: left ventricular dp/dt max; experiment: Cardiac stimulant activity in vivo (anaesthetised cats): left ventricular dp/dt max; set-up: species or system cat; settings: Felis catus, iv, read-out: ED50 (dose to increase left ventricular dp/dt max by 50%), i.v., pretreated with ganglion blocker and propranolol
Source text: Cardiac Stimulant Activity--In vivo (Anaesthetised Cats)
# Relative duration was estimated in the anaesthetised cats following the

PDE (Peak III) = experiment: Inhibition of PDE (Peak III); settings: read-out: IC50 (PDE Peak III); 1 μM cyclic AMP
Experimental: as §1

EC50 (ventricular strips) [µM]	Structure (SMILES)	ED50 [1] [µmol/kg]	also measured
	Nc1nc2c(ncn2[C@@H]2O[C@@H]3COP(=O)(O)O[C@H]3[C@H]2O)c(=O)[nH]1 [cyclic GMP]		Relative Vmax (PDE (Peak I); 50 μg/ml calmodulin added): 7.2; Relative Vmax (PDE (Peak I); without calmodulin): 1.1; affinity of PDE (Peak I) (PDE (Peak I); in words): high affinity; affinity of PDE (Peak II) (PDE (Peak II)): relatively low affinities
12	CC1CC(=O)NN=C1c1ccc(NC(=NC#N)NCc2ccccn2)cc1 (stereo not shown) [Example 12, 6-[4-(N^3-(2-Pyridylmethyl)-N^2-cyanoguanidino)phenyl]-5-methyl-4,5-dihydro-3(2H)-pyridazinone]		
0.8	CC1CC(=O)NN=C1c1ccc(NC(=NC#N)NCc2ccccc2)cc1 (stereo not shown) [Example 10, 6-[4-(N^3 -Benzyl-N^2-cyanoguanidino)phenyl]-5-methyl-4,5-dihydro-3(2H)-pyridazinone]	0.1	
	CC1CC(=O)NN=C1c1ccc(NC(=NC#N)NCc2ccc(O)cc2)cc1 (stereo not shown) [Example 9, 6-[4-(N^3-(4-Hydroxybenzyl)-N^2-cyanoguanidino)phenyl]-5-methyl-4,5-dihydro-3(2H)-pyridazinone]	0.4	IC50 (PDE (Peak III)): 0.08 µM
	COc1ccc(CNC(=NC#N)Nc2ccc(C3=NNC(=O)CC3C)cc2)cc1 (stereo not shown) [Example 11, 6-[4-(N^3-(4-Methoxybenzyl)-N^2-cyanoguanidino)phenyl]-5-methyl-4,5-dihydro-3(2H)-pyridazinone]	0.5	
	CNC(=NS(C)(=O)=O)Nc1ccc(C2=NNC(=O)CC2C)cc1 (stereo not shown) [Example 2, 6-[4-(N^3-methyl-N^2-methylsulphonylguanidino)phenyl]-5-methyl-4,5-dihydro-3(2H)-pyridazinone]	0.2	IC50 (PDE (Peak III)): 2.48 µM
8	CC1CC(=O)NN=C1c1ccc(NC(=NC#N)NCCO)cc1 (stereo not shown) [Example 5, 6-[4-(N^3-(2-Hydroxyethyl)-N^2-cyanoguanidino)phenyl]-5-methyl-4,5-dihydro-3(2H)-pyridazinone]	0.7	
	CNC(=NS(=O)(=O)c1ccccc1)Nc1ccc(C2=NNC(=O)CC2C)cc1 (stereo not shown) [Example 3, 6-[4-(N^ 3-methyl-N^2-phenylsulphonylguanidino)phenyl]-5-methyl-4,5-dihydro-3(2H)-pyridazinone]	0.1	IC50 (PDE (Peak III)): 0.23 µM
10	C=CCNC(=NC#N)Nc1ccc(C2=NNC(=O)CC2C)cc1 (stereo not shown) [Example 7, 6-[4-(N^3 -Allyl-N^2-cyanoguanidino)phenyl]-5-methyl-4,5-dihydro-3(2H)-pyridazinone]	0.3	
2.8	COCCNC(=NC#N)Nc1ccc(C2=NNC(=O)CC2C)cc1 (stereo not shown) [Example 4, 6-[4-(N^3-(2-Methoxyethyl)-N^2-cyanoguanidino)phenyl]-5-methyl-4,5-dihydro-3(2H)-pyridazinone]	0.2	
16	CC(=O)N=C(N)Nc1ccc(C2=NNC(=O)CC2C)cc1 (stereo not shown) [Example 1, 6-[4-(N^2-acetylguanidino)phenyl]-5-methyl-4,5-dihydro-3(2H)-pyridazinone]	0.5	IC50 (PDE (Peak III)): 2.23 µM
10	CC1CC(=O)NN=C1c1ccc(NC(=NC#N)NC2CC2)cc1 (stereo not shown) [Example 6]	0.4	
12.5	CC1CC(=O)NN=C1c1ccc(NC(=NC#N)NCCc2ccccc2)cc1 (stereo not shown) [Example 13, 6-[4-(N^3 -Phenethyl-N^2-cyanoguanidino)phenyl]-5-methyl-4,5-dihydro-3(2H)-pyridazinone]		
18	C#CCNC(=NC#N)Nc1ccc(C2=NNC(=O)CC2C)cc1 (stereo not shown) [Example 8, 6-[4-(N^3 -Propargyl-N^2-cyanoguanidino)phenyl]-5-methyl-4,5-dihydro-3(2H)-pyridazinone]	0.4	
